# Results published in PubChem BioAssay (NCI).
#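 A five-concentration, 48-hour dose response in 96-well plates underlies each endpoint, interpolated linearly between surrounding concentrations. GI50 marks 50% less growth. TGI is the concentration that stops growth completely.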
# Experiments:
# Experiment in all cases: growth of human tumour cells (NCI), 48 h
# 786-0 renal = tested on: 786-0 renal
# A498 renal = tested on: A498 renal
# A549 NSCLC = tested on: A549 NSCLC
# ACHN renal = tested on: ACHN renal
# BT-549 breast = tested on: BT-549 breast
# CAKI-1 renal = tested on: CAKI-1 renal
# CCRF-CEM leukemia = tested on: CCRF-CEM leukemia
# COLO 205 colon = tested on: COLO 205 colon
# DU-145 prostate = tested on: DU-145 prostate
# EKVX NSCLC = tested on: EKVX NSCLC
# HCC-2998 colon = tested on: HCC-2998 colon
# HCT-116 colon = tested on: HCT-116 colon
# HCT-15 colon = tested on: HCT-15 colon
# HL-60(TB) leukemia = tested on: HL-60(TB) leukemia
# HOP-62 NSCLC = tested on: HOP-62 NSCLC
# HOP-92 NSCLC = tested on: HOP-92 NSCLC
# HS 578T breast = tested on: HS 578T breast
# IGROV1 ovarian = tested on: IGROV1 ovarian
# KM12 colon = tested on: KM12 colon
# LOX IMVI melanoma = tested on: LOX IMVI melanoma
# M14 melanoma = tested on: M14 melanoma
# MALME-3M melanoma = tested on: MALME-3M melanoma
# MCF7 breast = tested on: MCF7 breast
# MDA-MB-231 breast = tested on: MDA-MB-231 breast
# MDA-N = tested on: MDA-N
# MOLT-4 leukemia = tested on: MOLT-4 leukemia
# NCI-H226 lung = tested on: NCI-H226 lung
# NCI-H23 lung = tested on: NCI-H23 lung
# NCI-H460 lung = tested on: NCI-H460 lung
# NCI-H522 lung = tested on: NCI-H522 lung
# OVCAR-4 ovarian = tested on: OVCAR-4 ovarian
# OVCAR-8 ovarian = tested on: OVCAR-8 ovarian
# PC-3 prostate = tested on: PC-3 prostate
# RXF 393 renal = tested on: RXF 393 renal
# SF-268 CNS = tested on: SF-268 CNS
# SF-295 CNS = tested on: SF-295 CNS
# SF-539 CNS = tested on: SF-539 CNS
# SK-MEL-28 melanoma = tested on: SK-MEL-28 melanoma
# SK-OV-3 ovarian = tested on: SK-OV-3 ovarian
# SN12C renal = tested on: SN12C renal
# SNB-19 CNS = tested on: SNB-19 CNS
# SNB-75 CNS = tested on: SNB-75 CNS
# SR leukemia = tested on: SR leukemia
# SW-620 colon = tested on: SW-620 colon
# TK-10 renal = tested on: TK-10 renal
# UACC-257 melanoma = tested on: UACC-257 melanoma
# UACC-62 melanoma = tested on: UACC-62 melanoma
# UO-31 renal = tested on: UO-31 renal
# MDA-MB-435 = tested on: MDA-MB-435
# OVCAR-3 ovarian = tested on: OVCAR-3 ovarian
# OVCAR-5 ovarian = tested on: OVCAR-5 ovarian
# SK-MEL-2 melanoma = tested on: SK-MEL-2 melanoma
# SK-MEL-5 melanoma = tested on: SK-MEL-5 melanoma
compound,measurement,setting,value
Cc1cc(C)c2c(=O)cc(-c3cccc(Cl)c3)[nH]c2n1,TGI,786-0 renal,> 55.1 µM
same,TGI,A498 renal,> 100 µM
same,TGI,A549 NSCLC,> 100 µM
same,TGI,ACHN renal,> 100 µM
same,TGI,BT-549 breast,85.3 µM
same,GI50,CAKI-1 renal,204 nM
same,TGI,CAKI-1 renal,> 100 µM
same,TGI,CCRF-CEM leukemia,> 100 µM
same,TGI,COLO 205 colon,> 67.1 µM
same,TGI,DU-145 prostate,> 100 µM
same,TGI,EKVX NSCLC,> 100 µM
same,TGI,HCC-2998 colon,> 100 µM
same,TGI,HCT-116 colon,> 23.1 µM
same,TGI,HCT-15 colon,> 100 µM
same,TGI,HL-60(TB) leukemia,2150 nM
same,TGI,HOP-62 NSCLC,> 100 µM
same,TGI,HOP-92 NSCLC,> 100 µM
same,TGI,HS 578T breast,> 100 µM
same,TGI,IGROV1 ovarian,> 100 µM
same,TGI,KM12 colon,> 100 µM
same,TGI,LOX IMVI melanoma,> 34.2 µM
same,TGI,M14 melanoma,> 100 µM
same,TGI,MALME-3M melanoma,> 100 µM
same,TGI,MCF7 breast,> 100 µM
same,TGI,MDA-MB-231 breast,8.09 µM
same,TGI,MDA-N,52.9 nM
same,TGI,MOLT-4 leukemia,> 38.8 µM
same,TGI,NCI-H226 lung,> 100 µM
same,TGI,NCI-H23 lung,> 100 µM
same,TGI,NCI-H460 lung,> 100 µM
same,TGI,NCI-H522 lung,742 nM
same,TGI,OVCAR-4 ovarian,> 100 µM
same,TGI,OVCAR-8 ovarian,> 100 µM
same,TGI,PC-3 prostate,96.7 nM
same,TGI,RXF 393 renal,> 100 µM
same,TGI,SF-268 CNS,> 100 µM
same,TGI,SF-295 CNS,330 nM
same,TGI,SF-539 CNS,464 nM
same,TGI,SK-MEL-28 melanoma,> 100 µM
same,TGI,SK-OV-3 ovarian,> 100 µM
same,TGI,SN12C renal,> 38.3 µM
same,TGI,SNB-19 CNS,> 100 µM
same,TGI,SNB-75 CNS,> 100 µM
same,TGI,SR leukemia,> 100 µM
same,TGI,SW-620 colon,> 100 µM
same,TGI,TK-10 renal,> 100 µM
same,TGI,UACC-257 melanoma,> 94.1 µM
same,TGI,UACC-62 melanoma,> 100 µM
same,TGI,UO-31 renal,> 100 µM
Cc1ccc2c(=O)cc(-c3cccc(Cl)c3)[nH]c2n1,TGI,786-0 renal,> 100 µM
same,TGI,A498 renal,> 100 µM
same,TGI,A549 NSCLC,> 100 µM
same,TGI,ACHN renal,> 100 µM
same,TGI,BT-549 breast,> 100 µM
same,TGI,CAKI-1 renal,> 100 µM
same,TGI,CCRF-CEM leukemia,> 100 µM
same,TGI,COLO 205 colon,> 35.8 µM
same,TGI,DU-145 prostate,> 100 µM
same,TGI,EKVX NSCLC,> 100 µM
same,TGI,HCC-2998 colon,41.5 µM
same,TGI,HCT-15 colon,> 35.8 µM
same,TGI,HOP-92 NSCLC,> 100 µM
same,TGI,HS 578T breast,> 100 µM
same,TGI,IGROV1 ovarian,> 100 µM
same,TGI,KM12 colon,> 37.5 µM
same,TGI,LOX IMVI melanoma,> 100 µM
same,TGI,M14 melanoma,> 100 µM
same,TGI,MALME-3M melanoma,> 100 µM
same,TGI,MCF7 breast,> 36 µM
same,TGI,MDA-MB-231 breast,3.63 µM
same,TGI,MDA-MB-435,46.3 nM
same,TGI,MDA-N,> 100000 nM
same,TGI,NCI-H226 lung,25.9 µM
same,TGI,NCI-H23 lung,> 31.6 µM
same,TGI,NCI-H460 lung,> 100 µM
same,TGI,NCI-H522 lung,1610 nM
same,TGI,OVCAR-3 ovarian,27.4 nM
same,TGI,OVCAR-4 ovarian,> 100 µM
same,TGI,OVCAR-5 ovarian,> 100 µM
same,TGI,OVCAR-8 ovarian,> 100 µM
same,TGI,PC-3 prostate,> 100000 nM
same,TGI,SF-268 CNS,> 100 µM
same,TGI,SF-295 CNS,1360 nM
same,TGI,SF-539 CNS,44.3 nM
same,TGI,SK-MEL-2 melanoma,> 100 µM
same,TGI,SK-MEL-28 melanoma,> 100 µM
same,TGI,SK-MEL-5 melanoma,4.7 µM
same,TGI,SK-OV-3 ovarian,> 100 µM
same,TGI,SN12C renal,> 100 µM
same,TGI,SNB-19 CNS,> 100 µM
same,TGI,SR leukemia,> 100 µM
same,TGI,SW-620 colon,> 100 µM
same,TGI,TK-10 renal,> 100 µM
same,TGI,UACC-257 melanoma,> 100 µM
same,TGI,UACC-62 melanoma,> 100 µM
same,TGI,UO-31 renal,> 100 µM
